Results reported in ChEMBL document CHEMBL1201862, “PubChem BioAssay data set” (2004).
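Tested at 5 concentrations; 48 h exposure; 96-well plates; endpoints linearly interpolated, else capped at highest concentration. GI50 marks 50% less growth.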 Calls of active or inactive are those of the source. Rule as the data show it: active = GI50 up to about 1.1 µM and inactive = higher.

How the values were obtained:
Experiment in all cases: growth of human tumour cells (NCI), 48 h
NCI-H460 = system: NCI-H460
SK-OV-3 = system: SK-OV-3
NCI-H23 = system: NCI-H23
EKVX = system: EKVX
U-251 = system: U-251
SF-268 = system: SF-268
SNB-19 = system: SNB-19
DU-145 = system: DU-145
HCT-116 = system: HCT-116
COLO 205 = system: COLO 205
SK-MEL-5 = system: SK-MEL-5
HCC 2998 = system: HCC 2998
MOLT-4 = system: MOLT-4
SF-295 = system: SF-295
RPMI-8226 = system: RPMI-8226
KM12 = system: KM12
HOP-62 = system: HOP-62
SR = system: SR
HCT-15 = system: HCT-15
RXF 393 = system: RXF 393

Row | Structure (SMILES) | GI50 (NCI-H460) | GI50 (SK-OV-3) | GI50 (NCI-H23) | GI50 (EKVX) | GI50 (U-251) | GI50 (SF-268) | GI50 (SNB-19) | GI50 (DU-145) | GI50 (HCT-116) | GI50 (COLO 205) | GI50 (SK-MEL-5) | GI50 (HCC 2998) | GI50 (MOLT-4) | GI50 (SF-295) | GI50 (RPMI-8226) | GI50 (KM12) | GI50 (HOP-62) | GI50 (SR) | GI50 (HCT-15) | GI50 (RXF 393)
1 | CCN(CC)C1Oc2cc3c(cc2C(c2cc(OC)c(OC)c(OC)c2)C1C)OCO3 (stereo unspecified) | 0.944 µM (active) | 1.1 µM (active) | 1.53 µM (inactive) | 10.4 µM (inactive) | 0.6 µM (active) | 3.61 µM (inactive) | 1.29 µM (inactive) | 1.77 µM (inactive) | 0.465 µM (active) | 0.875 µM (active) | 0.408 µM (active) | 0.809 µM (active) | 0.871 µM (active) | 0.441 µM (active) | 0.927 µM (active) | 0.53 µM (active) | 0.471 µM (active) | 0.256 µM (active) | 0.518 µM | 0.839 µM (active)
2 | COCCNC1CCC2(SCCS2)c2[nH]c3ccccc3c21 (stereo unspecified) | 67.8 µM (inactive) | – | > 100 µM (inactive) | > 100 µM (inactive) | 37.2 µM (inactive) | > 100 µM (inactive) | > 100 µM (inactive) | 39.3 µM (inactive) | 50.1 µM (inactive) | 22.2 µM (inactive) | 25.1 µM (inactive) | 67.6 µM (inactive) | 29.2 µM (inactive) | 50.4 µM (inactive) | 15 µM (inactive) | 17.8 µM (inactive) | 86.7 µM (inactive) | 23.1 µM (inactive) | 69.8 µM | 14 µM (inactive)
3 | Cc1cccc(C)c1/N=N/c1ccc(O)c(CN(C)C)c1 | 26 µM (inactive) | > 100 µM (inactive) | 60.1 µM (inactive) | > 100 µM (inactive) | > 100 µM (inactive) | 47 µM (inactive) | > 100 µM (inactive) | > 100 µM (inactive) | 68.7 µM (inactive) | 22.3 µM (inactive) | 11.7 µM (inactive) | 19.9 µM (inactive) | 34.8 µM (inactive) | 71.6 µM (inactive) | 29 µM (inactive) | > 100 µM (inactive) | 51.6 µM (inactive) | 34.4 µM (inactive) | > 100 µM | 0.716 µM (active)
4 | COc1ccc(Nc2cc(O)nc(O)n2)cc1 | > 100 µM (inactive) | – | > 100 µM (inactive) | > 100 µM (inactive) | > 100 µM (inactive) | > 100 µM (inactive) | > 100 µM (inactive) | > 100 µM (inactive) | > 100 µM (inactive) | > 100 µM (inactive) | > 100 µM (inactive) | > 100 µM (inactive) | > 100 µM (inactive) | > 100 µM (inactive) | > 100 µM (inactive) | > 100 µM (inactive) | > 100 µM (inactive) | > 100 µM (inactive) | > 100 µM | 24.7 µM (inactive)
5 | COc1ccc(-n2c(N)c(C#N)c(C#N)c2-c2ccccc2)cc1 | – | > 100 µM (inactive) | > 100 µM (inactive) | > 100 µM (inactive) | 30.1 µM (inactive) | 31.1 µM (inactive) | 29.6 µM (inactive) | > 100 µM (inactive) | > 100 µM (inactive) | > 100 µM (inactive) | 51.6 µM (inactive) | > 100 µM (inactive) | > 100 µM (inactive) | 31.8 µM (inactive) | > 100 µM (inactive) | > 100 µM (inactive) | 87.7 µM (inactive) | > 100 µM (inactive) | > 100 µM | 23.8 µM (inactive)
6 | CC(=O)Oc1c(-c2ccccc2)oc2ccccc12 | 0.678 µM (active) | – | 1.77 µM (inactive) | 2.06 µM (inactive) | 1.04 µM (active) | 2.28 µM (inactive) | 1.53 µM (inactive) | 3.96 µM (inactive) | 1.66 µM (inactive) | 1.9 µM (inactive) | 1.35 µM (inactive) | 1.31 µM (inactive) | 1.89 µM (inactive) | 0.946 µM (active) | 0.813 µM (active) | 1.09 µM (active) | 2.42 µM (inactive) | 0.394 µM (active) | 1.99 µM | 1.42 µM (inactive)
7 | O=C1CC(c2ccccc2Cl)C2(C(=O)NC(=O)NC2=O)C(c2ccccc2Cl)C1 (stereo unspecified) | 98.4 µM (inactive) | 0.356 µM (active) | > 100 µM (inactive) | 38.6 µM (inactive) | > 100 µM (inactive) | 39.4 µM (inactive) | > 100 µM (inactive) | 39.2 µM (inactive) | > 100 µM (inactive) | – | > 100 µM (inactive) | 49.2 µM (inactive) | > 100 µM (inactive) | > 100 µM (inactive) | 68.2 µM (inactive) | > 100 µM (inactive) | > 100 µM (inactive) | 58.1 µM (inactive) | > 100 µM | 29.5 µM (inactive)
8 | S=c1sscc1N1CCSc2ssc(=S)c21 | > 100 µM (inactive) | – | 19.9 µM (inactive) | 16.6 µM (inactive) | 13.8 µM (inactive) | 35.9 µM (inactive) | 18.8 µM (inactive) | 21.8 µM (inactive) | 87.1 µM (inactive) | > 100 µM (inactive) | > 100 µM (inactive) | > 100 µM (inactive) | > 100 µM (inactive) | – | > 100 µM (inactive) | > 100 µM (inactive) | – | > 100 µM (inactive) | 47.5 µM | 47.3 µM (inactive)
9 | COc1ccc(C(=O)NCCC2CN(S(=O)(=O)C(F)(F)F)c3ccccc32)c(OC)c1 (stereo unspecified) | 33.6 µM (inactive) | > 100 µM (inactive) | 32.8 µM (inactive) | 39 µM (inactive) | 30.3 µM (inactive) | – | 54.5 µM (inactive) | > 100 µM (inactive) | 35.8 µM (inactive) | 34.5 µM (inactive) | 15.2 µM (inactive) | 60.4 µM (inactive) | 29.1 µM (inactive) | 68.9 µM (inactive) | 26.8 µM (inactive) | 21.3 µM (inactive) | 88.5 µM (inactive) | > 100 µM (inactive) | 57.4 µM | > 100 µM (inactive)
10 | C=CCn1c(=O)c(Br)nn(CCOCP(=O)(OCC)OCC)c1=O | > 100 µM (inactive) | – | > 100 µM (inactive) | > 100 µM (inactive) | > 100 µM (inactive) | > 100 µM (inactive) | > 100 µM (inactive) | > 100 µM (inactive) | – | > 100 µM (inactive) | 61.2 µM (inactive) | > 100 µM (inactive) | > 100 µM (inactive) | – | > 100 µM (inactive) | > 100 µM (inactive) | > 100 µM (inactive) | > 100 µM (inactive) | > 100 µM | > 100 µM (inactive)
11 | O=C1c2ccccc2C2C1C(c1ccccc1)C1(Cc3ccccc3C1=O)C2c1ccccc1 (stereo unspecified) | > 67 µM (inactive) | > 100 µM (inactive) | > 100 µM (inactive) | > 100 µM (inactive) | > 100 µM (inactive) | > 100 µM (inactive) | > 100 µM (inactive) | > 100 µM (inactive) | 2.2 µM (inactive) | > 100 µM (inactive) | > 55.8 µM (inactive) | > 46.8 µM (inactive) | 3.58 µM (inactive) | > 29.6 µM (inactive) | – | > 100 µM (inactive) | > 100 µM (inactive) | 7.57 µM (inactive) | > 100 µM | > 100 µM (inactive)
12 | ClC1(Cl)C2CCOC21n1cnc2ccccc21 (stereo unspecified) | – | > 100 µM (inactive) | 45 µM (inactive) | > 100 µM (inactive) | > 100 µM (inactive) | > 100 µM (inactive) | > 100 µM (inactive) | > 100 µM (inactive) | > 100 µM (inactive) | > 100 µM (inactive) | > 100 µM (inactive) | > 100 µM (inactive) | > 100 µM (inactive) | > 100 µM (inactive) | > 100 µM (inactive) | > 100 µM (inactive) | > 100 µM (inactive) | > 100 µM (inactive) | > 100 µM | > 100 µM (inactive)
13 | Nc1nc(-c2ccccc2)nc2oc(-c3cccs3)nc12 | > 100 µM (inactive) | – | > 100 µM (inactive) | > 100 µM (inactive) | > 100 µM (inactive) | > 100 µM (inactive) | > 100 µM (inactive) | > 100 µM (inactive) | > 100 µM (inactive) | > 100 µM (inactive) | > 100 µM (inactive) | > 100 µM (inactive) | > 100 µM (inactive) | > 100 µM (inactive) | > 100 µM (inactive) | > 100 µM (inactive) | > 100 µM (inactive) | > 100 µM (inactive) | > 100 µM | > 100 µM (inactive)
14 | Oc1ccc(/C=C/c2cc(O)cc(O)c2)cc1 [RESVERATROL] | 42.1 µM (inactive) | 79.3 µM (inactive) | 46 µM (inactive) | 81.5 µM (inactive) | > 100 µM (inactive) | > 100 µM (inactive) | > 100 µM (inactive) | 12.1 µM (inactive) | – | – | – | 62.4 µM (inactive) | 7.23 µM (inactive) | 44 µM (inactive) | 8.63 µM (inactive) | 31.9 µM (inactive) | 92 µM (inactive) | 53.1 µM (inactive) | > 100 µM | 40.9 µM (inactive)
15 | CCOC(=O)c1c(-c2ccc(Cl)cc2)c(C#N)c(=S)n(C2OC(CO)C(O)C(O)C2O)c1-c1ccccc1 (stereo unspecified) | 26.9 µM (inactive) | 28.3 µM (inactive) | 30.3 µM (inactive) | – | 17 µM (inactive) | 28.1 µM (inactive) | 22.8 µM (inactive) | 27.2 µM (inactive) | 18.7 µM (inactive) | 30.1 µM (inactive) | 15.6 µM (inactive) | 28.9 µM (inactive) | 13.5 µM (inactive) | 20.4 µM (inactive) | 34.7 µM (inactive) | 34.5 µM (inactive) | 20.3 µM (inactive) | 33.1 µM (inactive) | 29.9 µM | 23 µM (inactive)
